Data on 32 compounds can be found in US11384055B2 (BIOMARIN PHARMACEUTICAL INC., priority 2017, dated 2022).

Each structure is given as a SMILES string.

One assay deals with T1, Human GO (Homo sapiens, UniProt Q9UJM8).
T1 construct: purchased Novus Biologicals NBP1-72412
T1 sequence (Q9UJM8 1-370): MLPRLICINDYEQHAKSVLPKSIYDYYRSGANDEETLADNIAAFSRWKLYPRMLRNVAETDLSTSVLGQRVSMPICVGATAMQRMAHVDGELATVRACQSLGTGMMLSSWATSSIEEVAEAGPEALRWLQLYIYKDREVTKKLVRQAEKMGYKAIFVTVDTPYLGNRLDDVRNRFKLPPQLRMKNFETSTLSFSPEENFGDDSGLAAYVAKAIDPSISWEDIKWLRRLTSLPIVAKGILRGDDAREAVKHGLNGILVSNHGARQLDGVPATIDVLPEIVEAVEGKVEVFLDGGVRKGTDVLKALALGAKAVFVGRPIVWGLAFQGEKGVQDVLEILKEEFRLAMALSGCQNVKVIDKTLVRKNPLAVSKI
The experiment in a line: GO enzymatic assay (coupled fluorescence/HRP assay, glycolate substrate). It counts as biochemical.
Details: not given
Put shortly:
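Human GO incubated with glycolate substrate in 50 mM potassium phosphate, pH 7, with varying inhibitor concentrations. Activity read by coupled HRP fluorescence. IC50 taken from variable-slope sigmoidal dose-response fits of percent inhibition relative to DMSO control.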
As for `O=C(O)c1[nH]nnc1-c1ccc(Cl)c(Cl)c1` [Compound 125, 4-(3,4-dichlorophenyl)-1H-1,2,3-triazole-5-carboxylic acid], the IC50 was less than 100 nM.
On to `O=C(O)c1[nH]nnc1-c1ccc(-c2ccc(Cl)cc2)cc1` [Compound 126, 2,2,2-trifluoroacetate], for which the half-inhibitory concentration (IC50) was less than 100 nM.
In turn, `O=C(O)c1[nH]nnc1-c1ccc(-c2ccc(OC(F)(F)F)cc2)cc1` [Compound 128] came in with an IC50 of 100 to 1000 nM.
`O=C(O)c1[nH]nnc1-c1ccc(-c2ccc(Cl)cc2)c(Cl)c1` [Compound 130, 2,2,2-trifluoroacetate]: the IC50 was less than 100 nM.
Turning to `O=C(O)c1[nH]nnc1-c1ccc2cc(Cl)ccc2c1` [Compound 133, 4-(6-chloronaphthalen-2-yl)-1H-1,2,3-triazole-5-carboxylic acid], the IC50 is less than 100 nM.
On to `O=C(O)c1[nH]nnc1-c1cccc(OC(F)(F)F)c1` [Compound 135, 4-(3-(trifluoromethoxy)phenyl)-1H-1,2,3-triazole-5-carboxylic acid], for which the IC50 was less than 100 nM.

The same assay, now with this note: Table 1; read-out: Range (range of IC50 values calculated from the enzymatic assays).
With `O=C(O)c1[nH]nnc1Oc1ccc2ncccc2c1` [Compound 120, 4-(quinolin-6-yloxy)-1H-1,2,3-triazole-5-carboxylic acid 2,2,2-trifluoroacetate], the IC50 is 100 to 1000 nM.
On to `O=C(O)c1[nH]nnc1Oc1ccc2cnccc2c1` [Compound 121, 4-(isoquinolin-6-yloxy)-1H-1,2,3-triazole-5-carboxylic acid 2,2,2-trifluoroacetate], for which the IC50 was 100 to 1000 nM.
Regarding `O=C(O)c1[nH]nnc1Oc1ccc(-c2ccc3ncccc3c2)cc1` [Compound 122, 5-(4-(quinolin-6-yl)phenoxy)-1H-1,2,3-triazole-4-carboxylic acid], the IC50 was less than 100 nM.
On to `O=C(O)c1[nH]nnc1-c1csc(-c2ccc(Cl)c(Cl)c2)n1` [Compound 124, 4-(2-(3,4-dichlorophenyl)thiazol-4-yl)-1H-1,2,3-triazole-5-carboxylic acid], for which the IC50 is less than 100 nM.
Take `O=C(O)c1[nH]nnc1-c1ccc(Oc2ccc(Cl)cc2)cc1` [Compound 127, 4-(4-(4-chlorophenoxy)phenyl)-1H-1,2,3-triazole-5-carboxylic acid]: the IC50 was less than 100 nM.
For `O=C(O)c1[nH]nnc1-c1cccc(-c2ccc(Cl)c(Cl)c2)c1` [Compound 129, 4-(3′,4′-dichloro-[1,1′-biphenyl]-3-yl)-1H-1,2,3-triazole-5-carboxylic acid], the IC50 is less than 100 nM.
For the compound `O=C(O)c1[nH]nnc1-c1cccc(Oc2ccc(Cl)c(Cl)c2)c1` [Compound 131, 4-(3-(3,4-dichlorophenoxy)phenyl)-1H-1,2,3-triazole-5-carboxylic acid 2,2,2-trifluoroacetate], the IC50 was less than 100 nM.
As to `O=C(O)c1[nH]nnc1-c1ccc2cc(Cl)ccc2n1` [Compound 132, 4-(6-chloroquinolin-2-yl)-1H-1,2,3-triazole-5-carboxylic acid 2,2,2-trifluoroacetate], the IC50 was less than 100 nM.
Same read-out and setting: in the case of `O=C(O)c1[nH]nnc1-c1nccc2ccc(Cl)cc12` [Compound 134, 4-(7-chloroisoquinolin-1-yl)-1H-1,2,3-triazole-5-carboxylic acid] it was greater than 10000 nM.
Take `O=C(O)c1[nH]nnc1-c1ccc(OC(F)(F)F)cc1` [Compound 136, 4-(4-(trifluoromethoxy)phenyl)-1H-1,2,3-triazole-5-carboxylic acid]: the IC50 was 100 to 1000 nM.
Consider `O=C(O)c1[nH]nnc1-c1ccc(OCC2CCCC2)cc1` [Compound 137, 4-(4-(cyclopentylmethoxy)phenyl)-1H-1,2,3-triazole-5-carboxylic acid], for which the IC50 was 100 to 1000 nM.
On to `O=C(O)c1[nH]nnc1-c1ccc(OC2CCCC2)cc1` [Compound 138, 4-(4-(cyclopentyloxy)phenyl)-1H-1,2,3-triazole-5-carboxylic acid], for which the IC50 is 100 to 1000 nM.
On to `O=C(O)c1[nH]nnc1-c1ccc(-c2ccc(OC(F)(F)F)cc2)c(Cl)c1` [Compound 139, 4-(2-chloro-4′-(trifluoromethoxy)-[1,1′-biphenyl]-4-yl)-1H-1,2,3-triazole-5-carboxylic acid 2,2,2-trifluoroacetate], for which the IC50 is 100 to 1000 nM.
Consider `O=C(O)c1[nH]nnc1C1=Cc2ccccc2CC1` [Compound 140, 4-(3,4-dihydronaphthalen-2-yl)-1H-1,2,3-triazole-5-carboxylic acid 2,2,2-trifluoroacetate], for which the IC50 is less than 100 nM.
Consider `O=C(O)c1[nH]nnc1C1CCc2ccccc2C1` (centres unmarked) [Compound 141, 4-(1,2,3,4-tetrahydronaphthalen-2-yl)-1H-1,2,3-triazole-5-carboxylic acid 2,2,2-trifluoroacetate], for which the IC50 is 100 to 1000 nM.
As to `CC(C)N1CCc2cc(-c3nn[nH]c3C(=O)O)ccc2C1` [Compound 143, 4-(2-isopropyl-1,2,3,4-tetrahydroisoquinolin-6-yl)-1H-1,2,3-triazole-5-carboxylic acid 2,2,2-trifluoroacetate], the IC50 was greater than 10000 nM.
`CC(C)N1CCc2ccc(-c3nn[nH]c3C(=O)O)cc2C1` [Compound 144, 4-(2-isopropyl-1,2,3,4-tetrahydroisoquinolin-7-yl)-1H-1,2,3-triazole-5-carboxylic acid 2,2,2-trifluoroacetate]: the IC50 was greater than 10000 nM.
Still for that read-out and setting: in the case of `O=C(O)c1[nH]nnc1-c1ccc(OC(F)(F)F)cn1` [Compound 145, 4-(5-(trifluoromethoxy)pyridin-2-yl)-1H-1,2,3-triazole-5-carboxylic acid 2,2,2-trifluoroacetate] it was 1000 to 10000 nM.
Take `O=C(O)c1[nH]nnc1C(=O)N1CCC(c2ccc(Cl)cc2)C1` (centres unmarked) [Compound 146, 4-(3-(4-chlorophenyl)pyrrolidine-1-carbonyl)-1H-1,2,3-triazole-5-carboxylic acid]: the IC50 is 1000 to 10000 nM.
In the case of `O=C(O)c1[nH]nnc1C(=O)N1Cc2ccc(Cl)cc2C1` [Compound 147, 4-(5-chloroisoindoline-2-carbonyl)-1H-1,2,3-triazole-5-carboxylic acid], the IC50 is 1000 to 10000 nM.
In the case of `O=C(O)c1[nH]nnc1C(=O)N1CCc2cc(Cl)ccc21` [Compound 148, 4-(5-chloroindoline-1-carbonyl)-1H-1,2,3-triazole-5-carboxylic acid], the IC50 was less than 100 nM.
Still for that read-out and setting: in the case of `O=C(O)c1[nH]nnc1C(=O)N1CCC(c2ccc(Cl)cc2Cl)C1` (centres unmarked) [Compound 149, 4-(3-(2,4-dichlorophenyl)pyrrolidine-1-carbonyl)-1H-1,2,3-triazole-5-carboxylic acid] it was 1000 to 10000 nM; in that of `O=C(O)c1[nH]nnc1C(=O)N1CCC(c2ccc(Cl)c(Cl)c2)C1` (centres unmarked) [Compound 150, 4-(3-(3,4-dichlorophenyl)pyrrolidine-1-carbonyl)-1H-1,2,3-triazole-5-carboxylic acid], 1000 to 10000 nM; in that of `O=C(O)c1[nH]nnc1SCc1ccc(Cl)c2ccccc12` [Compound 152, 4-(((4-chloronaphthalen-1-yl)methyl)thio)-1H-1,2,3-triazole-5-carboxylic acid 2,2,2-trifluoroacetate], less than 100 nM.
Regarding `O=C(O)c1[nH]nnc1Nc1cc(Cl)cc(Cl)c1` [Compound 153, 4-((3,5-dichlorophenyl)amino)-1H-1,2,3-triazole-5-carboxylic acid], the IC50 was 100 to 1000 nM.
For `O=C(O)c1[nH]nnc1Nc1cc(Cl)ccc1Cl` [Compound 154, 4-((2,5-dichlorophenyl)amino)-1H-1,2,3-triazole-5-carboxylic acid 2,2,2-trifluoroacetate], the IC50 is 1000 to 10000 nM.

One may read the IC50 as the concentration that gives 50% inhibition.
